The test system of assay [1] is cachexia-inducing action of CF. Particulars: Silva et al., Infection and Immunity 1988; cited from earlier work.
In assay [2] the test system is turpentine-induced wasting. In words: Turpentine-induced wasting (Example 4). The assay is classed as in vivo, mice. Particulars: 100 mg/kg intraperitoneally day -3, 0.1 ml turpentine i.m. day 0, FIG. 4. On the procedure: (See Gershenwald et al., "Interleukin 1 receptor blockade attenuates the host inflammatory response" Proc. Natl. Acad. Sci., 87 4966-70, (July, 1990) for a description of the turpentine-induced wasting procedure). In this experiment, three days before day 0 (day -3), five male (CD)2F1 mice, obtained from Charles Rivers Laboratories, each received intraperitoneally 0.5 ml of PBS. Five other mice obtained from the same source each received intraperitoneally 100 mg/kg body weight suramin diluted with 0.5 ml of PBS.

In the next assay the test system is IL-6 receptor. The assay can be described thus: Radioreceptor assay: binding of 125I-IL-6 to U266 cells. Further details: species or system human. The following applies: 90 minutes at 4° C.; increasing amounts of compound. The procedure:
This experiment analyzed whether suramin inhibits IL-6 bioactivity by interfering with binding to the IL-6 receptor. Into eighteen test tubes was placed U266 indicator cells (obtained from ATCC), a binding buffer, made up of RPMI medium, 0.1 mg BSA and […] Hepes, and 100,000 cpm (0.8 ng) of ^125 I-IL-6. The tubes were divided into six groups of three tubes each and received suramin as follows: group 1 had 300 uM suramin; group 2 had 100 uM suramin; group 3 had 30 uM suramin; group 4 had 10 uM suramin; and group 5 had no suramin, but only medium (control for maximal binding). In addition, group 6 received excess unlabeled IL-6 without suramin for use in determining the background of binding in this assay.
After 90 minutes of incubation at 4° C. and the centrifugation of cells on oil (a standard radioreceptor assay) Strassmann, J. Immunol., 147:1279-1289 (1991), the amount of radioactivity bound to the cells was determined. […] Also, the addition of increasing amounts of suramin prevented the binding of radioactive IL-6 to U266 human myeloma indicator cells in vitro as reflected in the results set forth in FIG. 6.
The same procedure set forth in Example 6 was followed, except that Pentosan polysulfate was used instead of Suramin.

Assay [3] relates to C-26 cachexia. In words: Dose dependence of C-26 cachexia inhibition (Example 3). The assay is classed as in vivo, mice. The following applies: increasing amounts intraperitoneally; day 17; FIG. 3. The procedure: Mice were obtained and injected with C-26 cells as set forth above for Example 1, and then were put into four groups of five mice each. The mice were injected intraperitoneally with increasing amounts of suramin as indicated in FIG. 3 except for the control mice. On day 17, the total weight of each group was compared to a control group of five mice which had been injected with 0.5 ml PBS intraperitoneally.

The next assay deals with IL-6. The assay can be described thus: IL-6 dependent proliferation of B-9 cells (3H-thymidine incorporation). The assay is classed as cell-based. Particulars: preincubated with IL-6; 3 days culture; FIG. 5. On the procedure: A standard proliferation assay, Strassmann et al., J. Immunol., 147:1279-1285 (1991), was conducted using 96 well plates The medium used was RPMI with 10% fetal calf serum B-9 cells were added and were cultured for 3 days. The extent of proliferation of B-9 cells was determined by the incorporation of radioactive thymidine as described in Strassmann et al., J. Clin. Invest., 89, pp. 1681-84 (May 1992). […] (See Strassmann et al., J. Clin. Invest., 89, pp. 1681-84 (May 1992), incorporated herein by reference.)
The same procedures set forth in Example 5 was followed except that a different sulfate-containing compound, Pentosan polysulfate, was used.
The same procedure set forth in Example 5 was followed except in this example, Dextran sulfate and Dextran, were used instead of Suramin.
For orientation: Incorporation of labelled thymidine or its analogues reports DNA synthesis.

Assay [4] has as its system C-26.IVX cells derived from the colon adenocarcinoma. In words: Suramin blocks C-26 mediated cachexia (Example 1). Particulars: 200 mg/kg I.P. d7, 13. It counts as in vivo, mice. On the procedure: Eleven male mice (CD)2F1 obtained from Charles Rivers Laboratories were weighed and then were inoculated with 0.5×10^6 C-26.IVX cells derived from the colon adenocarcinoma (by the procedure described in Strassmann et al., J. Clin. Invest., 89, pp. 1681-84 (May 1992) which is incorporated herein by reference). The day of inoculation was identified as day 0 (d0). On days 7 and 13, five of these mice each received intraperitoneally 0.5 ml of PBS (phosphate buffered saline) and the other six mice each received intraperitoneally 200 mg/kg body weight of suramin diluted in 0.5 ml PBS. On day 19, all the mice were sacrificed and the final total weight, the host weight, the tumor weight, epididymal fat, and dry weight were measured.

Assay [5] has as its system C-26 cachexia. In words: Time course of C-26 mediated weight loss and tumor volume (Example 2). It counts as in vivo, mice. Particulars: 100 mg/kg intraperitoneally days 7 and 12. The procedure:
In subsequent experiments, eight mice obtained from the same source as above were injected with 0.5 ml PBS intraperitoneally and eight other mice from the same source as above were injected with 100 mg/kg body weight of suramin intraperitoneally. The injections were given on days 7 and 12. The weight of the two groups was measured several times a week.

A further assay deals with 125I-IL-6. The assay can be described thus: 125I-IL-6 sequestration in vivo (liver, kidney, spleen radioactivity). Set-up: species or system mice. Particulars: for Kidney radioactivity / Liver radioactivity / Spleen radioactivity: 5 mg/mouse, mean ± 0.5 range of 2 mice. The procedure:
The ability to prevent binding of IL-6 in vivo was analyzed as follows. Eight mice received 5.0 mg/mouse of suramin intravenously and eight other mice received 0.2 ml PBS/mouse intravenously 0.5 hour. Thereafter, all sixteen of the mice received an injection of 300,000 cpm (2.4 ng) of ^125 I-IL-6. Four mice from each group were sacrificed 30 minutes after receiving the ^125 I-IL-6 and the remaining four mice from each group were sacrificed 60 minutes after receiving the ^125 I-IL-6. The liver, kidney, and spleen were removed and measured for radioactivity (cpm).

Where [6] appears, read: 5.0 mg/mouse intravenously 0.5 hour before 125I-IL-6.

The structures appear in SMILES notation. Values joined by “and” are separate entries in the source; they are usually repeats but may differ in a detail not shown here. Equal entries are not always repeated. “Also recorded” adds a separate entry of the source. Structures can show the parent of a compound that is named as a salt.

In the case of `C[C@@H]1C[C@H]2[C@@H]3CCC4=CC(=O)C=C[C@]4(C)[C@@]3(F)[C@@H](O)C[C@]2(C)[C@@]1(O)C(=O)CO` [Dexamethasone], the “cachexia-inducing action of CF” value in assay [1] is recorded as “partially inhibit the cachexia-inducing action of CF”.

As for `Cc1ccc(C(=O)Nc2ccc(S(=O)(=O)O)c3cc(S(=O)(=O)O)cc(S(=O)(=O)O)c23)cc1NC(=O)c1cccc(NC(=O)Nc2cccc(C(=O)Nc3cc(C(=O)Nc4ccc(S(=O)(=O)O)c5cc(S(=O)(=O)O)cc(S(=O)(=O)O)c45)ccc3C)c2)c1` [Suramin, 8-8'-[Carbonylbis[imino-3,1-phenylenecarbonylimino(4-methyl-3,1-phenylene)carbonylimino]]bis-1,3,5-naphthalenetrisulfonic acid hexasodium salt], the turpentine-induced weight loss result in assay [2] is listed as “exhibited no such weight loss; also recorded: prevention of turpentine-induced wasting”. Besides, the “binding of radioactive IL-6 to U266 cells” value in the assay with IL-6 receptor is “prevents binding of the IL-6 to the U266 cells in a dose dependent manner; also recorded: prevention of the binding of IL-6 to human myeloma cells”. Also, the “percentage of weight loss (wasting) versus dose” value in the assay with C-26 cachexia [3] is “inhibited wasting in a dose dependent manner; also recorded: dose dependent inhibition of C-26 cachexia”. The “bioactivity of IL-6 (proliferation of B-9 cells)” value in the assay on IL-6 is “inhibits the bioactivity of IL-6; also recorded: inhibition of bioactivity of IL-6”. Besides, in assay [4] (d19, individual mouse), the “% weight loss” value is 5.3% and 17.6% and 10.5% and 15.4% and 18.6% and 5.1%; the Dry wt is 7.8 g and 6.5 g and 6.6 g and 6.4 g; the Final total wt. was 25.9 g and 25.2 g and 26.2 g and 25.5 g and 25.4 g and 27.4 g; the “Host's wt.” value is 25.0 g and 23.3 g and 24.2 g and 23.5 g and 23.1 g and 25.8 g. Besides, in assay [4] (d19, individual mouse), the IL-6 is 292 U/ml and 360 U/ml and 310 U/ml and 535 U/ml and 477 U/ml and 328 U/ml; the “Serum Glucose” value was 128 mg/dL and 114 mg/dL and 100 mg/dL and 110 mg/dL and 109 mg/dL and 116 mg/dL; the Tumor wt was 0.93 g and 1.98 g and 2.08 g and 1.96 g and 2.36 g and 1.64 g. Also, in assay [4] (d19, mean ±SD of six mice), the “% weight loss” value stood at 12.0%, the Dry wt was 6.7 ± 0.5 g, the “Host's wt.” value is reported as 24.2 g and the IL-6 was determined as 384 U/ml. Further, in assay [4] (d19, mean ±SD of six mice), the “Serum Glucose” value turned out to be 113 ± 9 mg/dL and the Tumor wt is given as 1.82 g. Also, the “% weight loss” value in assay [4] (d19, mean ±SD of six mice, listed as suramin) came to 12.0±6.0%. The same molecule displayed a Final total wt. in assay [4] (sacrificed d19, mean ±SD of six mice) of 26.9 ± 0.8 g. Besides, in the assay with C-26 cachexia [5] (FIG. 1), the “C-26 mediated weight loss over time” value is given as “inhibited C-26 mediated weight loss in a significant time dependent manner; also recorded: time dependent inhibition of C-26 cachexia”. Also, the “tumor (C-26) growth in vivo (tumor volume)” value with C-26 cachexia [5] (FIG. 2) was “no significant effect on the tumor (C-26) growth in-vivo except on day 19; also recorded: lack of effect”. Further, in the assay with 125I-IL-6 (setting [6]), the “less radioactivity measured in the liver versus PBS” value is “approximately 50%” and the “radioactive IL-6 present in the kidney” value is recorded as “increase of radioactive IL-6 present in the kidney”. Besides, in the assay on 125I-IL-6 (Expt. 1, 30 minutes), the Kidney radioactivity amounted to 70151 ± 125 cpm, the Liver radioactivity stood at 8385 ± 1525 cpm/gm and the Spleen radioactivity was found to be 1347 ± 295 cpm. In addition, in the assay on 125I-IL-6 (Expt. 1, 60 minutes), the Kidney radioactivity was 36595 ± 1760 cpm, the Liver radioactivity is recorded as 4275 ± 91 cpm/gm and the Spleen radioactivity is reported as 630 ± 6 cpm. In addition, in the assay on 125I-IL-6 (Expt. 2, 30 minutes), the Kidney radioactivity came to 57287 ± 2849 cpm, the Liver radioactivity is 9277 ± 235 cpm/gm and the Spleen radioactivity is recorded as 1306 ± 4 cpm. In addition, in the assay with 125I-IL-6 (Expt. 2, 60 minutes), the Kidney radioactivity worked out at 38254 ± 466 cpm, the Liver radioactivity is 5512 ± 379 cpm/gm and the Spleen radioactivity is 631 ± 25 cpm.

These data come from US5453444A, “Method to mitigate or eliminate weight loss” (Otsuka Pharmaceutical Co., Ltd., priority 1994, dated 1995).
